Results published in PubChem BioAssay AID463199 (Broad Institute, 2010).
Active and inactive are the calls of the source.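 The calls were made as follows: active = AC50, the dose giving half-maximal effect, exceeds a fixed cutoff for a compound that rescues yeast growth under heat; inactive = the rest, inconclusive results apart.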 Where a SMILES comes first, the peptide text is derived from it.

Tested on: S. cerevisiae Burl-1 ts mutant growth, BacTiter-Glo, 38.5C 24 h
Test: restored growth of temperature-sensitive Burl-1 yeast – whole organism, S. cerevisiae, Burl-1 ts mutant, luminescence, counter-screen for SUMOylation pathway inhibitor project, dose response (AID 463199)

SMILES	AC50
N#CC1=C(SCC(N)=O)NC(=O)CC1c1ccccc1Cl (centres undefined)	> 42 µM (inactive)
Cc1ccc2nc(NC(=O)CNS(=O)(=O)c3ccc(Br)s3)sc2c1	> 42 µM (inactive)
CC(C)c1ccc(C2C(C(=O)c3ccco3)=C(O)C(=O)N2CCN2CCOCC2)cc1 (centres undefined)	> 42 µM (inactive)
COC(=O)c1c(C)cc(O)c(C=O)c1O	> 42 µM (inactive)
Cc1cc(C)cc(N2C(=O)CC(Sc3ncn[nH]3)C2=O)c1 (centres undefined)	> 42 µM (inactive)
Nc1ccc(C2(c3ccc(N)cc3)OC(=O)c3ccccc32)cc1	> 42 µM (inactive)
CC(=O)N1N=C(N)SC12CCCC2	> 42 µM (inactive)
CC(C)C(=O)Nc1ccc(NC(=S)NC(=O)c2ccccc2F)cc1	> 42 µM (inactive)
NC(=O)CC(NC(=S)NCc1ccccc1)C(=O)O (centres undefined)	> 42 µM (inactive)
CC(CN1CCCCCC1)C(=O)NN (centres undefined)	> 42 µM (inactive)
Nn1c(SCc2cc([N+](=O)[O-])cc3c2OCOC3)nnc1-c1ccccn1	> 42 µM (inactive)
O=C(Nc1ccc2oc(-c3ccccc3F)nc2c1)c1ncn[nH]1	> 42 µM (inactive)
CCCCCCCCc1nc(SCC(C)=O)n[nH]1	> 42 µM (inactive)
COc1ccccc1NC(=O)Nc1ccc(Cl)c(S(=O)(=O)Nc2ccccc2OC)c1	> 42 µM (inactive)
CCN(CC)S(=O)(=O)c1cc(NC(=O)COC(=O)CCc2nc3ccccc3s2)ccc1C	> 42 µM (inactive)
Cc1ccc(C)c(NC(=S)NC(=O)c2cncc(Br)c2)c1	> 42 µM (inactive)
O=C(CS(=O)c1ccc(C(F)(F)F)cc1[N+](=O)[O-])Oc1ccc(Cl)cc1 (centres undefined)	> 42 µM (inactive)
CCN(C(=O)COC(=O)c1cc([N+](=O)[O-])ccc1N1CCOCC1)C1CCCCC1	> 42 µM (inactive)
Cc1cc(C)c[n+](-c2nc3ccccc3nc2[N-]S(=O)(=O)c2ccc(Br)s2)c1	> 42 µM (inactive)
O=C(COc1ccccc1)Nc1ccc(OC(F)(F)C(F)F)c(NC(=O)COc2ccccc2)c1	> 42 µM (inactive)
CC1=CS(=O)(=O)CC1Sc1ncn[nH]1 (centres undefined)	> 42 µM (inactive)
CCCc1ccccc1OCCNC(C)=O	> 42 µM (inactive)
C=CCSc1nnc2c(n1)[nH]c1c(C)cccc12	> 42 µM (inactive)
O=C(NCCCn1ccnc1)c1ccc(Cl)cc1	> 42 µM (inactive)
C/C=C/C(=O)OCC(=O)Nc1nc2ccc(C)cc2s1	> 42 µM (inactive)

SMILES	AC50
Cc1ccc(F)cc1NS(=O)(=O)c1ccc(Cl)s1	> 42 µM (inactive)
CCOC(=O)N1CCC(NS(=O)(=O)c2ccc(C)c(Cl)c2)CC1	> 42 µM (inactive)
CCOC(=O)/C(C#N)=C\c1ccc(CC)s1	> 42 µM (inactive)
O=C(COC(=O)c1ccc([N+](=O)[O-])o1)Nc1ncc(Cl)cc1Cl	> 42 µM (inactive)
CNc1csc(C)c(C)c1=O	> 42 µM (inactive)
CC(C)Oc1ccc(C2(C#N)CC[N+](C)(C)CC2)cc1	> 42 µM (inactive)
Cn1cccc1CC(=O)N/N=C/c1cccc([N+](=O)[O-])c1	> 42 µM (inactive)
CCCN(CCC)C(=O)CSc1ncccc1C(=O)O	> 42 µM (inactive)
CC(C)Oc1ccc(CCC(=O)NNC(=O)c2ccccc2C(=O)O)cc1	> 42 µM (inactive)
O=C(Nc1nccs1)c1ccc(S(=O)(=O)c2ccccc2)cc1	> 42 µM (inactive)
CC1(C)C2CC=C(/C=N/NC(=S)Nc3cccnc3)C1C2 (centres undefined)	> 42 µM (inactive)
NC(=O)c1nsc(C(=O)N(Cc2ccc(F)cc2)C(C(=O)NC2CCCC2)c2ccco2)c1N (centres undefined)	> 42 µM (inactive)
CN(C(=O)COC(=O)c1cc(-c2ccc(Cl)s2)nc2ccccc12)C1CCS(=O)(=O)C1 (centres undefined)	> 42 µM (inactive)
COc1cccc(CN(C)CC2CCCN(CCc3ccc(Cl)cc3)C2)c1OC (centres undefined)	> 42 µM (inactive)
O=C(COc1ccccc1)Nc1cccc(-c2nnc(-c3ccccc3)o2)c1	> 42 µM (inactive)
CCCOC(=O)C1=C(C)NC2=C(C(=O)CCC2)C1c1cccs1 (centres undefined)	> 42 µM (inactive)
O=c1c2ccccc2ncn1Cc1ccc(Cl)cc1	> 42 µM (inactive)
COc1cc(C(C2=C(O)CC(C)(C)CC2=O)C2C(=O)CC(C)(C)CC2=O)cc(OC)c1OC (centres undefined)	> 42 µM (inactive)
Cc1ccc(-c2cc(C(=O)O)c3ccccc3n2)s1	> 42 µM (inactive)
Cc1ccc(C(C(=O)Nc2ccc3c(c2)OCO3)N(C)C(=O)Cc2c[nH]c3ccccc23)cc1 (centres undefined)	> 42 µM (inactive)
N#CCCN(Cc1cccnc1)C(=O)Nc1cccc(Cl)c1	> 42 µM (inactive)
CN(C)c1ccc(C(=O)N2CCCC(CCC(=O)N3CCN(c4ccccn4)CC3)C2)cc1 (centres undefined)	> 42 µM (inactive)
CCCCOc1ccc(C(=O)Nc2ccc(CN3CCOCC3)cc2)cc1	> 42 µM (inactive)
O=C(CSc1ncccn1)c1ccccc1Br	> 42 µM (inactive)
Cc1ccccc1Nc1c([N+](=O)[O-])ccc2c1=NC1(CCCCC1)N=2	> 42 µM (inactive)

SMILES	AC50
Cc1cc(C)n(-c2nc(-c3cccc(Cl)c3)cs2)n1	> 42 µM (inactive)
CC1=C(C(N)=O)C(c2ccccn2)n2nc(SCc3ccccc3Cl)nc2N1 (centres undefined)	> 42 µM (inactive)
N#Cc1cc2c(nc1SC1CCCCC1O)CCCC2 (centres undefined)	> 42 µM (inactive)
CCOc1ccc(C(=O)Nc2ccc(C(F)(F)F)n(C)c2=O)cc1	> 42 µM (inactive)
CC(=O)c1cccc(NC(=O)CNC(=O)c2sc3ccccc3c2Cl)c1	> 42 µM (inactive)
CCc1cc2c(=O)c(-c3nc4ccccc4n3C)c(C)oc2c(CN2CCOCC2)c1O	22.7 µM
Cc1cc(NC(=O)c2ccc3c(c2)C(=O)N(C(C)(C)C)C3=O)no1	> 42 µM (inactive)
CCN1C(=O)N(c2ccc(Cl)cc2)C(C)=CC1(C)C	> 42 µM (inactive)
COCCCNC(=O)c1cc(C(=O)c2c(-c3c(Cl)cccc3Cl)noc2C)c[nH]1	> 42 µM (inactive)
O=C(Nc1ccccn1)c1ccc(CN(c2ccccc2)S(=O)(=O)c2ccccc2)cc1	> 42 µM (inactive)
C=CCN1C(=O)/C(=C\c2ccc(C)cc2)N=C1SCC(=O)NCCC	> 42 µM (inactive)
CCOC(=O)Cn1c(=O)oc2cc(S(=O)(=O)NC(C)(C)CC)ccc21	> 42 µM (inactive)
COCCNC(=O)C(c1ccc(C)cc1)N(C(=O)CCC(=O)Nc1ccccn1)c1cccc(C)c1 (centres undefined)	> 42 µM (inactive)
COc1cc(-c2nnc(SCC#CCO)o2)cc(OC)c1OC	> 42 µM (inactive)
Cc1nnc(SCC(=O)NC(C)(C)C)n1NCc1ccc(Cl)cc1	> 42 µM (inactive)
Cc1cc(Cl)c2oc(C(=O)NC3CCC(O)CC3)c(C)c2c1 (centres undefined)	> 42 µM (inactive)
CCc1nc2ccccc2c(C(=O)OC2CCCCC2=O)c1C (centres undefined)	> 42 µM (inactive)
O=C(O)C1C2CCC(O2)C1C(=O)NCCC1=CCCCC1 (centres undefined)	13.6 µM
Cn1c(=O)[nH]c(=O)c2c1nc(Sc1ccccc1)n2CCc1ccccc1	> 42 µM (inactive)
CCOC(=O)C1=Nc2ccccc2C1=[N+]=[N-]	> 42 µM (inactive)
CCn1c(=O)n(CC)c2cc(NC(=O)c3ccccc3Cl)ccc21	> 42 µM (inactive)
Fc1cccc(Cl)c1CSc1nnc(CN2CCOCC2)n1-c1ccccc1	> 42 µM (inactive)
CC(=O)NC(CC(C)C)C(=O)NC(CO)C(=O)NC(CCC(=O)O)C(=O)NC(C)C(=O)NC(CC(C)C)C(N)=O (centres undefined) (Ac-LSEAL-NH2; configuration not given here)	> 42 µM (inactive)
O=C(O)CC(NC(=O)OCc1ccccc1)c1ccc(Br)cc1 (centres undefined)	> 42 µM (inactive)
FC(F)(F)c1nnc(-c2ccccc2)nc1Oc1ccc(Cl)cc1Cl	> 42 µM (inactive)

SMILES	AC50
CC(C)(C)c1cc(NCCCn2ccnc2)n2ncc(-c3ccc(Cl)cc3)c2n1	> 42 µM (inactive)
COc1cccc(C(=O)N2CCN(S(=O)(=O)Cc3ccccc3)CC2)c1OC	> 42 µM (inactive)
O=C1NC(=O)C(=Cc2ccc(N3CCOCC3)cc2)C(=O)N1	> 42 µM (inactive)
COC(=O)c1[nH]c2cc(C)ccc2c1NC(=O)CN1CCN(c2ccccc2OC)CC1	> 21 µM (inactive)
COC(=O)C1=C(C)N(Cc2ccccc2)C(=S)N[C@H]1c1cccc(F)c1	> 42 µM (inactive)
COc1ccc2c(Cl)c(C(=O)NN3CCN(C)CC3)sc2c1	> 42 µM (inactive)
COc1ccc(-c2nnc(SCC(=O)N3CCCCC3)o2)cc1	> 42 µM (inactive)
c1ccc(CNc2ncnc3sc4c(c23)CCC4)nc1	> 42 µM (inactive)
COc1ccc(N2CCN(C(=O)C3CCCN(S(=O)(=O)c4ccc5c(c4)oc(=O)n5C)C3)CC2)cc1 (centres undefined)	> 21 µM (inactive)
O=C1CN(C(=O)c2c(F)cccc2F)C(c2ccc(F)cc2)c2cc(F)ccc2N1 (centres undefined)	> 42 µM (inactive)
COCCNC(=O)C(=O)N/N=C(\C)CC(=O)Nc1cccc(C(F)(F)F)c1	> 42 µM (inactive)
CNC(=O)c1ccccc1NC(=O)c1c(O)c2c([nH]c1=O)CCCC2	> 42 µM (inactive)
COc1cccc(OC)c1C(=O)Nc1ccc2c(c1)n(C)c(=O)n2C	> 42 µM (inactive)
CCOc1ccc(Br)cc1CNCCN1CCOCC1	> 42 µM (inactive)
O=C1CN(C(=O)COC(=O)CCNS(=O)(=O)c2ccc(Cl)cc2)c2ccccc2N1	> 42 µM (inactive)
CCOc1ccc(NC(=O)CNc2ccc(C)cc2Cl)cc1	> 42 µM (inactive)
O=C(NCC1CCCO1)C1CC(c2ccc(Cl)c(Cl)c2)=NO1 (centres undefined)	> 42 µM (inactive)
O=C(c1ccc([N+](=O)[O-])o1)N1CCN(c2nc3c(Cl)cccc3s2)CC1	> 42 µM (inactive)
Cc1c(C(=O)N2CCN(CCc3ccccc3)CC2)oc2ccccc12	> 42 µM (inactive)
Nc1ncnc2nc(SCC(=O)N3CCN(c4ccccc4)CC3)[nH]c12	> 42 µM (inactive)
CCN1CCN(C(=O)c2ccc3nc(-c4ccccc4)c(-c4ccccc4)nc3c2)CC1	> 42 µM (inactive)
Cc1ccc(OCC(=O)NN2C(=O)c3ccccc3C2=O)c(C)c1	> 42 µM (inactive)
Oc1c(Br)cc(Br)cc1/C=N/N1CCN(Cc2ccccc2)CC1	> 42 µM (inactive)
CCc1nccn1S(=O)(=O)c1cc(OC)ccc1OC	> 42 µM (inactive)
